Experiments:
[1] = test system: collagen-induced arthritis; test: Collagen-induced arthritis inhibitory test; assay type: in vivo, mice; settings: for Inhibitory rate: score of arthritis on the 52nd day after the first immunization vs control group, male DBA/IJ mice
Description: Collagen-induced arthritis inhibitory test is an experimental model for rheumatoid arthritis reported by Trethan, D. E. et al. [cf. […] J. Immunol., 140, 78-83 (1988)].
Collagen-induced arthritis inhibitory test was carried out according to the method of Kakimoto, K. et al. (cf. above reference of Kakimoto, K. et al.) with slight modification. That is, solubilized bovine cartilage type II collagen (product of Elastine Products, U.S.A.) was emulsified in complete Freund's adjuvant (product of DIFCO Lab., U.S.A.) to give a homogeneous emulsion. Male mice of DBA/IJ strain (6 week-old; product of Nippon Charles River, Japan) were immunized by injection at the base of the tail with 150 μg of the emulsified collagen. Twenty one days after the first immunization, arthritis was induced by a booster immunization of 150 μg of the emulsified collagen prepared in the same manner as above at the base of the tail again. A test compound was orally administered 5 days a week except for Saturdays and Sundays, which was started on the day of the first immunization and continued until the termination of the experiment. Mice were daily observed since the 8th day after the booster immunization for the onset of arthritis, and an arthritic score was derived by grading the severity of involvement of each paw five scales according to the method of Wood, F. D. et al. [cf. Int. Arch. Allergy Appl. The severity of arthritis was estimated by the sum of the scores of all 4 paws of both forepaws and both hind paws, and the onset of the disease was considered when score 1 was observed.
The inhibitory rate was obtained by comparing the score of arthritis on the 52nd day after the first immunization with that of the control group.

male mice of ICR strain = test: Subacute toxicity test (repetitive oral administration for 14 days); assay type: in vivo; parameters: key to ALT (alanine aminotransferase), significance vs solvent-treated control: −: no significant differences (Student's t-test); +: p < 0.05 (Student's t-test); ++: p < 0.01 (Student's t-test); settings: for ALT (alanine aminotransferase) vs vehicle-treated control group (in words) / AST (aspartate aminotransferase) vs vehicle-treated control group / BUN (blood urea nitrogen) vs vehicle-treated control group / wet-weights of various organs such as liver, spleen vs vehicle-treated control group / change in the body weight during the test vs vehicle-treated control group: 14 days oral; for ALT (alanine aminotransferase) vs vehicle-treated control group (in words) / AST (aspartate aminotransferase) vs vehicle-treated control group: parameter for liver dysfunction; for BUN (blood urea nitrogen) vs vehicle-treated control group: parameter for renal dysfunction; for wet-weights of various organs such as liver, spleen vs vehicle-treated control group: weight per body; for ALT (alanine aminotransferase), significance vs solvent-treated control: blood plasma; for ALT (alanine aminotransferase), significance vs solvent-treated control / Other remarks: male ICR mice; for change in the body weight during the test vs vehicle-treated control group: even at a high dose of 300 mg/kg; for Other remarks: remarks observed during the 14-day oral test
Description: Subacute toxicity test was carried out by repetitive administration of a test compound to mice for 14 days. That is, a test compound was orally administered to male mice of ICR strain once a day for 14 days. On the day following the final administration, the mice were anesthetized with Nembutal, and the blood was taken out therefrom, and further various organs were taken out. The wet-weight of each organ was determined, and was converted into a weight per body, and then compared. The blood plasma was subjected to various biochemical tests, mainly to tests for parameters for liver function and renal function. The results of these tests were statistically compared with those in the solvent-treated control group. The data of the biochemical tests, for example, ALT (alanine aminotransferase) as a parameter for liver dysfunction and other remarks observed during the test (see the column of “other remarks” in Table 3) are shown in Table 3.

[2] = dose 100 mg/kg orally once a day for 14 days
[3] = dose 200 mg/kg orally once a day for 14 days
[4] = dose 300 mg/kg orally once a day for 14 days

Row | Structure (SMILES) | Inhibitory rate ([1]; dose 0.3 mg/kg orally) [%] | Inhibitory rate ([1]; dose 10 mg/kg orally) [%] | ALT (alanine aminotransferase) vs vehicle-treated control group (in words) (male mice of ICR strain) | AST (aspartate aminotransferase) vs vehicle-treated control group (male mice of ICR strain) | BUN (blood urea nitrogen) vs vehicle-treated control group (male mice of ICR strain) | wet-weights of various organs such as liver, spleen vs vehicle-treated control group (male mice of ICR strain) | ALT (alanine aminotransferase), significance vs solvent-treated control (male mice of ICR strain; [2]) | ALT (alanine aminotransferase), significance vs solvent-treated control (male mice of ICR strain; [3]) | ALT (alanine aminotransferase), significance vs solvent-treated control (male mice of ICR strain; [4]) | change in the body weight during the test vs vehicle-treated control group (male mice of ICR strain) | Other remarks (male mice of ICR strain) | inhibitory effects (in words) ([1]; dose 3 mg/kg) | Inhibitory rate ([1]; dose 3 mg/kg orally) [%] | effect on the above parameters (body weight, organ weights, ALT, AST, BUN) (male mice of ICR strain; dose 100 mg/kg) | effect on the liver (male mice of ICR strain; high dose of 300 mg/kg) | Inhibitory rate ([1]; dose 1 mg/kg orally) [%] | anti-rheumatoid activity compared with Examples 1 and 2 ([1]; dose 3 mg/kg or less) | anti-rheumatoid activity compared with Examples 1 and 2 ([1]; dose 10 mg/kg) | side effect on liver and kidney (male mice of ICR strain; dose 100 mg/kg)
1 | CN(C)C(=O)CNc1nc(-c2ccc(C(F)(F)F)cc2)nc(-c2ccccc2)c1Cl [Example 1, 2-[5-chloro-6-phenyl-2-(4-trifluoromethylphenyl)-4-pyrimidinylamino]-N,N-dimethylacetamide] | 20.0 | 96.0 | not significantly different | not significantly different | not significantly different | not significantly different | − | − | − | not significantly different | no particular remark |  |  |  |  |  |  |  | 
2 | CN(C(=O)CNc1nc(-c2ccc(C(F)(F)F)cc2)nc(-c2ccccc2)c1Cl)C1CC1 [Example 2, 2-[5-chloro-6-phenyl-2-(4-trifluoromethylphenyl)-4-pyrimidinylamino]-N-cyclopropyl-N-methylacetamide] | 29.1 | 96.6 | not significantly different | not significantly different | not significantly different | not significantly different | − | − | − | not significantly different | no particular remark |  |  |  |  |  |  |  | 
3 | CCCN(CCC)C(=O)CNc1nc(-c2ccc(C(F)(F)F)cc2)nc(C)c1C [Reference Example A, 2-[5,6-dimethyl-2-(4-trifluoro-methylphenyl)-4-pyrimidinylamino]-N,N-dipropylacetamide, reference compound] |  | 73.2 |  |  |  |  | − | − | + (p < 0.05 (Student's t-test)) |  | no particular remark | hardly showed any inhibitory effects | 15.5 | did not affect | did affect the liver in some degree |  |  |  | 
4 | Cc1nc(-c2ccc(C(F)(F)F)cc2)nc(NCC(=O)N(C)C)c1C [Reference Example B, 2-[5,6-dimethyl-2-(4-trifluoro-methylphenyl)-4-pyrimidinylamino]-N,N-dimethylacetamide] | 0.0 | 97.6 |  |  |  |  | ++ (p < 0.01 (Student's t-test)) |  |  |  | peritoneal fluid, renal damage |  | 63.9 |  |  | 41.8 | weaker than the compounds of Example 1 and Example 2 | as potent as the compounds of Example 1 and Example 2 | potent side effect on liver and kidney

Reference: patent publication US6620817B1, “[5-CHLORO-6-PHENYL-2-(4-TRIFLUOROMETHYLPHENYL)-4-PYRIMIDINYLAMINO]ACETAMIDE DERIVATIVES, PROCESS FOR PRODUCING THE SAME, MEDICINAL COMPOSITIONS CONTAINING THE SAME AND INTERMEDIATE OF THESE COMPOUNDS” (Dainippon Pharmaceutical Co., Ltd., priority 1999, dated 2003)
